Laboratory results published in patent publication US20250381169A1, “METHODS FOR TREATING RENAL DISEASE” (Arizona Board of Regents on Behalf of the University of …, priority 2022, published 2025).
“Also recorded” adds a separate entry of the source.

Tests used:
[1] = system: kidney cortex of naïve mice; test: Mitochondrial biogenesis in kidney cortex of naïve mice; assay type: in vivo
Experimental: Mice were treated with vehicle, 0.3 mg/kg or 1 mg/kg of MC16 with 2 doses IP (Oh, 24h) and harvested at 48 h.
Proteins were measured using immunoblot analysis or PCR to measure mRNA. […] FIG. 2G is a table of antioxidant and electron transport chain proteins and associated mRNAs.

[2] = system: mice subjected to renal I/R; test: Mouse AKI model (renal ischemia reperfusion, I/R); assay type: in vivo
Experimental: Control and treated mice subjected to renal I/R were treated with MC16 (0.3 mg/kg) or vehicle 24 h after injury and then daily for 120 h (euthanized at 144 h). Using electron microscopy, mitochondria were counted. Vascular permeability was assessed with Evan's blue dye leakage and proteins were measured in renal cortices using immunoblot. Serum creatinine was also measured.

[3] = system: renal proximal tubule cells (RPTCs); test: Renal proximal tubule cells treated with high glucose; assay type: cell-based
Experimental: Here, the effects of MC16 on mitochondrial dysfunction and dynamics in renal proximal tubule cells (RPTCs) treated with high glucose and in a mouse model of type 2 diabetes was assessed.

[4] = system: Db/db mice; test: db/db mouse model of diabetic kidney disease; assay type: in vivo
Experimental: Db/db and nondiabetic (db/m) mice (10 wk old) were treated with MC16 or vehicle for 3 wk and euthanized.

[5] = system: aged mouse kidneys (renal cortex); test: Global metabolomics of renal cortex in aged mice; assay type: in vivo
Experimental: Aged 22-month-old male C57B/6J mice were administered 1.0 mg/kg of MC16 or normal saline every other day over a 21-day interval (n=8-9/group). Seven-month-old C57B/6J male mice (controls) were administered normal saline every other day over a 21-day interval (n=7). Kidneys were harvested and snap frozen in liquid nitrogen. Renal cortex biopsies were analyzed by Metabolon for global metabolomic analyses. Briefly, samples were processed and divided into four fractions: two for analysis by RP/UPLC-MS/MS with (+) ion mode electrospray ionization (IMESI), one for RP/UPLC-MS/MS with (−) IMESI, and one for HILIC/UPLC-MS/MS with (−) IMESI. […] A p-value of p≤0.05 and a false discovery rate of q<0.10 were utilized to identify global metabolite alteration and correct for multiple comparisons, respectively.

[6] = I/R+MC16 group, decreased in I/R group
[7] = RPTCs exposed to 17 mM glucose, 96 h
[8] = FIG. 16, compared to diabetic mice getting vehicle
[9] = db/db mice 10 wk old, treated for 3 wk
[10] = MC16-treated 'old' mice compared to saline-treated 'old' mice
[11] = MC16-treated 'old' mice vs saline-treated 'young' control mice

In the case of `CCN1C(=O)C(Cc2cccc(OC)c2O)(OC(=O)N(C)C)c2cc(Cl)ccc21` (stereo not shown) [MC16, 5-chloro-1-ethyl-3-(2-hydroxy-3-methoxybenzyl)-2-oxoindolin-3-yl dimethylcarbamate], the “mitochondrial and antioxidant proteins” value ([1]; immunoblot or PCR, n=6) is reported as “increases”, the “mitochondrial biogenesis pathway proteins and/or associated mRNA” value ([1]; immunoblot or PCR, n=6) is reported as “induces” and the “Mitochondrial number in kidney cortex” value ([1]; naïve mice, 0.3 mg/kg or 1 mg/kg, 2 doses IP (0 h, 24 h), harvested at 48 h) is reported as “increases”. For the same compound, the “recovery of renal function (serum creatinine)” value ([2]; FIG. 3, n=6) was “promotes recovery”, the “recovery of tubular injury (Kim1 expression)” value ([2]; FIG. 3, n=6) was “promotes recovery” and the MFN2 ([2]; FIG. 5, during injury or MC16 treatment) was “did not change”. For the same compound, the “MFN1 (fusion)” value ([2]; FIG. 5, n=6) was “increases”, the “pDRP1 (fission)” value ([2]; FIG. 6, at 144 h) was “decreases” and the DRP1 ([2]; FIG. 6, n=6) was “does not have an affect”. For the same compound, the “PGC-1α in the cytosolic fraction” value ([2]; FIG. 7, cytosolic fraction) was “not in the cytosolic fraction”, the “nuclear PGC-1α (biogenesis)” value ([2]; FIG. 7, nuclear fraction) was “increases” and the serum creatinine decrease ([2]; I/R+MC16, 0.3 mg/kg from 24 h after injury, daily, at 144 h (I/R group alone 41%)) was 72%. The Kim1 decrease ([2]; I/R+MC16 group, 0.3 mg/kg, 144 h) was 50%, the PGC-1α ([2]; I/R+MC16 group, renal cortex immunoblot) was “increased” and the “Tight junction protein Claudin5” value [2, 6] was “recovered”. For the same compound, the “Tight junction protein ZO-1” value [2, 6] was “recovered”, the “Evan's blue dye leakage (vascular permeability)” value ([2]; I/R+MC16 group, increased 2.5-fold in I/R group) was “restored” and the “mitochondria biogenesis in renal cortices” value ([2]; mitochondria counted by electron microscopy, 0.3 mg/kg) was 1.4 fold. The ATP [3, 7] was “restored”, the ETC proteins [3, 7] was “restored” and the oxygen consumption rate [3, 7] was “restored”. The Mfn1 ([3]; RPTCs exposed to high glucose) was “restored”, the phospho-Drp1 ([3]; RPTCs exposed to high glucose) was “restored” and the PGC1α ([4]; FIG. 9, n=6) was “restores”. For the same compound, the “MFN2 (fusion)” value ([4]; FIG. 10, n=6) was “increased”, the mitochondrial fission proteins ([4]; FIG. 11, n=6) was “no effect” and the mitophagy proteins ([4]; FIG. 12, n=6) was “increases”. The “glomerular function over time” value ([4]; FIG. 13, mice have yet to show signs of DKD in the timeframe) was “does not change”, the “vascular tight junction proteins” value ([4]; FIG. 15, n=6) was “improves” and the blood glucose [4, 8] was “does not increase/decrease”. The urine output [4, 8] was “does not increase/decrease”, the kidney weight ([4]; FIG. 17, relative to control mice) was “normalized” and the KIM1 ([4]; FIG. 18) was “normalizes”. For the same compound, the NGAL ([4]; FIG. 18) was “No effects”, the serum creatinine ([4]; FIG. 18) was “normalizes” and the ATP [4, 9] was “prevented; also recorded: restores”. For the same compound, the phospho-Drp1 [4, 9] was “restored”, the “renal cortical ETC protein levels (complexes I, III, and V)” value [4, 9] was “prevented; also recorded: restores” and the “reduction in DHAP” value [5, 10] was 20%. For the same compound, the “reduction in fructose-6-phosphate” value [5, 10] was 24%, the “reduction in glucose-6-phosphate” value [5, 10] was 32% and the “long chain polyunsaturated fatty acids (n3 and n6)” value ([5]; MC16-treated 'old' mice vs saline-treated 'old' and 'young' mice controls) was “increase”. For the same compound, the glycolysis metabolites [5, 11] was “no statistical changes”, the “metabolic lipid alterations (diacylglycerols, monoacylglycerols, acyl glycines, PC, PE, plasmalogens, secondary bile acids)” value [5, 11] was “not observed” and the “origin of carnitine species” value ([5]; MC16-treated 'old' mice, saline-treated 'old' mice: leucine, isoleucine, valine metabolism) was “fatty acid metabolism”. For the same compound, the carnitine levels ([5]; both 'old' groups (saline and MC16)) was “elevated”.
